For data set [1], the system named is SARS-CoV-2. Put plainly: microbe, parasite or virus in culture. The format is functional, organism-based, Chlorocebus sabaeus, Vero C1008. As to conditions: Severe acute respiratory syndrome coronavirus 2, Vero C1008, 48 h.
Another data set is described as follows: in vitro. Particulars: chlorocebus sabaeus, Vero E6 (Vero C1008) cells.
Data set [2] relates to SARS-CoV-2. Put plainly: microbe, parasite or virus in culture. Particulars: Severe acute respiratory syndrome coronavirus 2, Vero C1008, 48 h.

Bounds are passed on as bounds.

As usually defined, the CC50 is the concentration that lowers cell viability or growth by half. Read a high CC50 as better tolerance by the cells. On to `COc1ccc2c(c1)c(CC(=O)O)c(C)n2C(=O)c1ccc(Cl)cc1` [INDOMETHACIN], for which the IC50 with SARS-CoV-2 [1] (read-out: IC50), in the data set with SARS-CoV-2 [1] (read-out: pIC50 (converted)), in the data set on SARS-CoV-2 [2] and in the data set with SARS-CoV-2 [2] (read-out: pIC50 (converted)) was greater than 100 µM throughout. Besides, the CC50 at 48 h in the data set “in vitro” (CC50) and in “in vitro” (pCC50) was greater than 100 µM in each case.
Regarding `COc1ccc2cc(-c3cc(-c4cc(Cl)cc(Cl)c4)nn3[C@@H](C)c3ccc(C(=O)NCCC(=O)O)cc3)ccc2c1` [MK-0893], the IC50 with SARS-CoV-2 [1] (read-out: IC50), in the data set on SARS-CoV-2 [1] (read-out: pIC50 (converted)), in the data set on SARS-CoV-2 [2] and in the data set with SARS-CoV-2 [2] (read-out: pIC50 (converted)) was greater than 100 µM throughout. Further, the CC50 at 48 h in “in vitro” (CC50) is roughly 18.8 µM; in the data set “in vitro” (pCC50), roughly 18.6 µM.
`CC(CN1c2ccccc2Sc2ccccc21)N(C)C` (centres undefined) [PROMETHAZINE]: the IC50 was greater than 100 µM in the data set on SARS-CoV-2 [1] (read-out: IC50), greater than 100 µM with SARS-CoV-2 [1] (read-out: pIC50 (converted)), 21.9 µM with SARS-CoV-2 [2] and 21.9 µM in the data set with SARS-CoV-2 [2] (read-out: pIC50 (converted)). In addition, the cytotoxic concentration (CC50) at 48 h in “in vitro” (CC50) and in the data set “in vitro” (pCC50) was 33.1 µM each time.
Regarding `CCC(C)n1ncn(-c2ccc(N3CCN(c4ccc(OC[C@H]5CO[C@](Cn6cncn6)(c6ccc(F)cc6F)O5)cc4)CC3)cc2)c1=O` (some centres undefined) [SAPERCONAZOLE], the IC50 with SARS-CoV-2 [1] (read-out: IC50), with SARS-CoV-2 [1] (read-out: pIC50 (converted)), in the data set on SARS-CoV-2 [2] and in the data set on SARS-CoV-2 [2] (read-out: pIC50 (converted)) was greater than 100 µM each time. Further, the CC50 at 48 h in “in vitro” (CC50) and in the data set “in vitro” (pCC50) was greater than 100 µM in each case.
In the case of `CCCCCCC(C)(C)c1cc(O)c([C@H]2CC(=O)[C@H]3C[C@@H]2C3(C)C)c(OC(=O)/C=C/C(=O)O)c1` [PRS-211375], the IC50 with SARS-CoV-2 [1] (read-out: IC50) is greater than 50.1 µM; in the data set on SARS-CoV-2 [1] (read-out: pIC50 (converted)) it was greater than 50.1 µM; with SARS-CoV-2 [2], greater than 100 µM; in the data set on SARS-CoV-2 [2] (read-out: pIC50 (converted)), greater than 100 µM. Also, the CC50 at 48 h was 7.67 µM in the data set “in vitro” (CC50) and 7.59 µM in the data set “in vitro” (pCC50).
In the case of `C[C@H](Oc1cc(-c2cnn(C3CCNCC3)c2)cnc1N)c1c(Cl)ccc(F)c1Cl`, the IC50 is roughly 4.47 µM in the data set with SARS-CoV-2 [1] (read-out: IC50), roughly 4.47 µM in the data set on SARS-CoV-2 [1] (read-out: pIC50 (converted)), 6.76 µM in the data set with SARS-CoV-2 [2] and 6.76 µM with SARS-CoV-2 [2] (read-out: pIC50 (converted)). The results for the CC50 at 48 h in the data set “in vitro” (CC50) and in “in vitro” (pCC50) were 4.42 µM and 4.37 µM, respectively.
Take `C=CC(=O)Nc1cc(Nc2nccc(-c3cn(C)c4ccccc34)n2)c(OC)cc1N(C)CCN(C)C` [OSIMERTINIB]: the IC50 in the data set with SARS-CoV-2 [1] (read-out: IC50), in the data set on SARS-CoV-2 [1] (read-out: pIC50 (converted)), in the data set with SARS-CoV-2 [2] and with SARS-CoV-2 [2] (read-out: pIC50 (converted)) was greater than 100 µM each time. Also, the CC50 at 48 h in “in vitro” (CC50) and in “in vitro” (pCC50) was 3.09 µM each time.
On to `O=C1CC2(CCCC2)CC(=O)N1CCCCN1CCN(c2nsc3ccccc23)CC1` [TIOSPIRONE], for which the IC50 with SARS-CoV-2 [1] (read-out: IC50), with SARS-CoV-2 [1] (read-out: pIC50 (converted)), with SARS-CoV-2 [2] and in the data set with SARS-CoV-2 [2] (read-out: pIC50 (converted)) was greater than 100 µM in each case. For the same compound, the CC50 at 48 h in “in vitro” (CC50) is 24.6 µM; in the data set “in vitro” (pCC50) it was 24.5 µM.
Turning to `O=C(NO)c1ccc(C2=Nc3ccccc3Oc3ccccc32)cc1`, the IC50 in the data set on SARS-CoV-2 [1] (read-out: IC50), in the data set with SARS-CoV-2 [1] (read-out: pIC50 (converted)), in the data set with SARS-CoV-2 [2] and in the data set on SARS-CoV-2 [2] (read-out: pIC50 (converted)) was greater than 100 µM in each case. Besides, the CC50 at 48 h in “in vitro” (CC50) and in the data set “in vitro” (pCC50) was 1.55 µM each time.
For `CC[C@@H]([C@H](C)O)n1ncn(-c2ccc(N3CCN(c4ccc(OC[C@@H]5CO[C@@](Cn6cncn6)(c6ccc(F)cc6F)C5)cc4)CC3)cc2)c1=O` [POSACONAZOLE], the IC50 in the data set on SARS-CoV-2 [1] (read-out: IC50), with SARS-CoV-2 [1] (read-out: pIC50 (converted)), with SARS-CoV-2 [2] and with SARS-CoV-2 [2] (read-out: pIC50 (converted)) was greater than 100 µM each time. For the same compound, the CC50 at 48 h in the data set “in vitro” (CC50) and in “in vitro” (pCC50) was greater than 100 µM in each case.
Consider `CO[C@H]1CC[C@H](n2c([C@@H]3CCCC(=O)N3c3ccc(F)c(F)c3)nc3cc(-c4c(C)noc4C)ccc32)CC1` [INOBRODIB], for which the IC50 in the data set with SARS-CoV-2 [1] (read-out: IC50), in the data set with SARS-CoV-2 [1] (read-out: pIC50 (converted)), in the data set on SARS-CoV-2 [2] and in the data set on SARS-CoV-2 [2] (read-out: pIC50 (converted)) was greater than 100 µM throughout. Also, the CC50 at 48 h in “in vitro” (CC50) and in the data set “in vitro” (pCC50) was 3.16 µM in each case.
On to `COc1cc(C(=O)OCCCN2CCCN(CCCOC(=O)c3cc(OC)c(OC)c(OC)c3)CC2)cc(OC)c1OC` [DILAZEP], for which the IC50 in the data set on SARS-CoV-2 [1] (read-out: IC50), in the data set on SARS-CoV-2 [1] (read-out: pIC50 (converted)), with SARS-CoV-2 [2] and in the data set with SARS-CoV-2 [2] (read-out: pIC50 (converted)) was greater than 100 µM throughout. Further, the CC50 at 48 h in the data set “in vitro” (CC50) and in “in vitro” (pCC50) was roughly 28.2 µM throughout.
Regarding `O=C(O)CCc1nc(-c2ccccc2)c(-c2ccccc2)o1` [OXAPROZIN], the IC50 in the data set on SARS-CoV-2 [1] (read-out: IC50) is greater than 50.1 µM; with SARS-CoV-2 [1] (read-out: pIC50 (converted)), greater than 50.1 µM; in the data set with SARS-CoV-2 [2] it was 11.8 µM; in the data set on SARS-CoV-2 [2] (read-out: pIC50 (converted)), 11.7 µM. For the same compound, the CC50 at 48 h in “in vitro” (CC50) and in the data set “in vitro” (pCC50) was greater than 50.1 µM each time.
As to `c1ccc(C(c2ccccc2)N2CCN(CCCC3(c4ccccc4)OCCO3)CC2)cc1` [DOTARIZINE], the IC50 with SARS-CoV-2 [1] (read-out: IC50) was 10 µM; in the data set with SARS-CoV-2 [1] (read-out: pIC50 (converted)), 10 µM; in the data set with SARS-CoV-2 [2], greater than 20 µM; in the data set with SARS-CoV-2 [2] (read-out: pIC50 (converted)) it was greater than 20 µM. In addition, the CC50 at 48 h in the data set “in vitro” (CC50) and in “in vitro” (pCC50) was 17.4 µM throughout.

Source of the values: ChEMBL document CHEMBL4651402, “Screening of ~5500 FDA-approved drugs and clinical candidates for anti-SARS-CoV-2 activity” (2021).
